Consider six compounds from patent publication US4960775A, “Pyrrolophthalazines” (May & Baker Limited, priority 1987, dated 1990).

In this experiment the target is T1, rat hepatic microsomal HMG CoA reductase (Rattus norvegicus, UniProt P51639).
T1 construct: rat hepatic microsomal HMG CoA reductase activity in vitro; from tissue; host or cells: rat liver microsomes
T1 sequence (P51639 1-887): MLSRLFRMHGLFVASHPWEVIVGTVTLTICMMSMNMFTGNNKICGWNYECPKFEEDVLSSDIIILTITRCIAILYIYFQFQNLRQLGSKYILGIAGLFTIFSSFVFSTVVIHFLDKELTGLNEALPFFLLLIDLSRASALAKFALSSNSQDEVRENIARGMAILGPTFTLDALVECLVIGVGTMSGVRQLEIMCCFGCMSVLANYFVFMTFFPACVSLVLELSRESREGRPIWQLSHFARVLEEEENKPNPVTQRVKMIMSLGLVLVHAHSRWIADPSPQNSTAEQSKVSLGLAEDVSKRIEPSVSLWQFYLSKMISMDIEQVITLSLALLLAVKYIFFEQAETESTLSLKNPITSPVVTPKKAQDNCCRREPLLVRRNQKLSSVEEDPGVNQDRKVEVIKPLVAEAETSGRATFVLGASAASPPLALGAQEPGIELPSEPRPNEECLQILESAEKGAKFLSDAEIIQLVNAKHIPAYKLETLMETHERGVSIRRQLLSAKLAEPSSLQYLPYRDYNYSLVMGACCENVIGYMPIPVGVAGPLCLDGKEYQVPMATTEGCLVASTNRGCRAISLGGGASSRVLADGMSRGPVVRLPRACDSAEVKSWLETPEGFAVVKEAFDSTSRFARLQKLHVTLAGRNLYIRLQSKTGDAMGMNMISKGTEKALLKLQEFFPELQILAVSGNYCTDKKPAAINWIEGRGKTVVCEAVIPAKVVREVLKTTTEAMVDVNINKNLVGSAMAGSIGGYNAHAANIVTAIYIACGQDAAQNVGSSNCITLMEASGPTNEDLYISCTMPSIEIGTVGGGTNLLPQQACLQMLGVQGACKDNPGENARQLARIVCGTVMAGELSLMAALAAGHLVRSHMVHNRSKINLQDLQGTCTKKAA
The experiment in a line: inhibition of rat hepatic microsomal HMG CoA reductase activity in vitro. The note with it: for inhibition at 0.082 µg/mL: 0.082 micrograms/ml; for inhibition at 0.24 µg/mL: 0.24 micrograms/ml; for inhibition at 0.74 µg/mL: 0.74 micrograms/ml; for inhibition at 2.22 µg/mL: 2.22 micrograms/ml; for inhibition at 6.66 µg/mL: 6.66 micrograms/ml; for inhibition at 0.027 µg/mL: 0.027 micrograms/ml; for inhibition at 20 µg/mL: 20.0 micrograms/ml; for inhibition at 0.25 µg/mL: 0.25 micrograms/ml; for inhibition at 6.67 µg/mL: 6.67 micrograms/ml. It counts as biochemical. From the text:
In the table the concentrations of the test compounds are expressed in micrograms/ml.

Structures are written as SMILES.

`CC(C)c1c(/C=C/[C@@H](O)C[C@H](O)CC(=O)O)c(-c2ccc(F)cc2)c2c3ccccc3cnn12` (relative stereo) [Compound DB, sodium threo-(E)-7-{1-(4-fluorophenyl)-3-isopropylpyrrolo[2,1-a]-phthalazin-2-yl}-3,5-dihydroxyhept-6-enoate]: the inhibition (in general, how much of the control response was suppressed) at 0.082 µg/mL came to 34%; the inhibition at 0.24 µg/mL was 45%; the inhibition at 0.74 µg/mL is 52%; the inhibition at 2.22 µg/mL came to 67%. Further, testing at 6.66 µg/mL gave an inhibition of 85%. Besides, the inhibition at 0.27 µg/mL (0.27 micrograms/ml (so in the source)) was 29%.

Compound `CC(C)c1c(/C=C/[C@@H](O)C[C@@H](O)CC(=O)O)c(-c2ccc(F)cc2)c2c3ccccc3cnn12` (relative stereo) [Compound DA, sodium erythro-(E)-7-{1-(4-fluorophenyl)-3-isopropylpyrrolo[2,1-a]phthalazin-2-yl}-3,5-dihydroxyhept-6-enoate] gave an inhibition at 0.027 µg/mL of 49%, an inhibition at 0.082 µg/mL of 58%, an inhibition at 0.24 µg/mL of 72% and an inhibition at 0.74 µg/mL of 86%. Further, testing at 2.22 µg/mL gave an inhibition of 94% and the inhibition at 6.66 µg/mL is 98%.

The compound `CC(C)c1c(/C=C/C(=O)CC(O)CC(=O)O)c(-c2ccc(F)cc2)c2c3ccccc3cnn12` (stereo not drawn) [Compound G, sodium (E)-7-{1-(4-fluorophenyl)-3-isopropylpyrrolo[2,1-a]phthalazin-2-yl)-3-hydroxy-5-oxohept-6-enoate] came in with an inhibition at 0.74 µg/mL of 29%, an inhibition at 2.22 µg/mL of 52%, an inhibition at 6.66 µg/mL of 77% and an inhibition at 20 µg/mL of 92%.

The compound `CC(C)c1c(/C=C/C(O)CC(O)CC(=O)O)c(-c2ccccc2)c2c3ccccc3cnn12` (stereo not drawn) [Compound B, sodium (E)-3,5-dihydroxy-7-(3-isopropyl-1-phenylpyrrolo[2,1-a]phthalazin-2-yl)-hept-6-enoate] came in with an inhibition at 0.25 µg/mL of 38%, an inhibition at 0.74 µg/mL of 56%, an inhibition at 2.22 µg/mL of 74% and an inhibition at 6.67 µg/mL of 90%. The compound also had an inhibition at 20 µg/mL of 98%.

`CC(C)c1c(/C=C/C(O)CC(O)CC(=O)O)c(-c2ccc(F)cc2)c2c3ccccc3cnn12` (stereo not drawn) [Compound D, sodium (E)-7-{1-(4-fluorophenyl)-3-isopropylpyrrolo[2,1-a]-phthalazin-2-yl)-3,5-dihydroxyhept-6-enoate] displayed an inhibition at 0.027 µg/mL of 47%, an inhibition at 0.082 µg/mL of 50%, an inhibition at 0.25 µg/mL of 61% and an inhibition at 0.74 µg/mL of 66%. The inhibition at 2.22 µg/mL worked out at 76% and the inhibition at 6.67 µg/mL was 90%.

`CCOC(=O)C[C@H](O)C[C@H](O)/C=C/c1c(-c2ccc(F)cc2)c2c3ccccc3cnn2c1C(C)C` (relative stereo) [CA, ethyl erythro-(E)-7-{1-(4-fluorophenyl)-3-isopropylpyrrolo[2,1-a]phthalazin-2-yl)-3,5-dihydroxyhept-6-enoate] had an inhibition at 0.027 µg/mL of 23%, an inhibition at 0.082 µg/mL of 33%, an inhibition at 0.24 µg/mL of 47% and an inhibition at 0.74 µg/mL of 65%. 2.22 µg/mL produced 85% inhibition and the inhibition at 6.66 µg/mL stood at 95%.
